Results published in US6924309B2 (Children, Youth and Women's Health Service Incorporated, priority 1999, dated 2005).
Like-named read-outs stand apart in the source and are kept apart here.

Tests used:
[1] = Reaction with tert-butyl hydroperoxide to the sulfoxide; type: physicochemical; details: CH2Cl2, RT, after 9 h
Description: To further investigate the possible involvement of hydroperoxide-induced sulfoxide formation in the antioxidant behaviour of the γ-thia and β-thia fatty acids 18, 19, 106, 108, 109 and 112, compounds 108 and 109 (in a ratio of 1:1 in CH2Cl2) were allowed to react with tert-butyl hydroperoxide. [drawing 37]
The reaction was monitored by TLC and ^1H NMR analysis. […] The ^1H NMR spectrum of compound 114 contains two multiplets at δ2.88-3.07 and two doublets at δ3.63-3.86 corresponding to the methylene protons on the carbons adjacent to sulfur.

[2] = Petri-dish thin film autoxidation of arachidonic acid with thia fatty acids and sulfides (HPLC)
Protocol: A stock solution in dichioromethane (2 ml) containing arachidonic acid 1 (18 mg) and 3-[(3Z,6Z)-nona-3,6dienylthio]propionic acid 106 (18 mg) was prepared with lauric acid (18 mg) as an internal standard. Samples of the stock solution (100 μl) were added to glass Petri-dishes followed by ethanol (400 μl). After evaporation of the solvent, a well-distributed thin film was formed on each Petri-dish. The Petri-dishes were placed in a desiccator, which was then evacuated, filled with oxygen and stored in the darkness. Dishes were removed from the desiccator after 1, 2, 3, 5 and 7 days. The mixture on each dish was redissolved in diethyl ether and transferred to a 2 ml vial. After evaporation of the solvent, the residue was dissolved in the HPLC mobile phase (100 μl) and 10% of the solution was analysed by HPLC using a reverse phase column (octadecylsilane) (4.6 mm×250 mm, 3 μm) and a refractive index detector.
Autoxidation of arachidonic acid was conducted in the presence of compound 19 and lauric acid. Stock solutions of arachidonic acid, compound 19 and lauric acid in dichloromethane with equal concentrations were added to a 25 ml round-bottomed flask, and the solvent was evaporated to leave a thin film on the internal surface of the flask. The flask was then filled with oxygen and kept in the dark. The percentages of arachidonic acid and compound 19 remaining after 7 days were measured by HPLC. The same assay was carried out simultaneously with several flasks but the results were not reproducible. The variation was attributed to differences in oxygen concentration and the surface area of the thin films formed in the flasks. Therefore, in order to establish a reproducible assay for the analysis of the autoxidation of arachidonic acid, Petri-dishes with uniform size (80 mm in diameter) were used instead of flasks for thin film formation and the oxidation was carried out by placing the Petri-dishes in a dessicator filled with oxygen. To assess this method, thin firms of arachidonic acid with lauric acid as a standard were prepared on six Petri-dishes using identical treatment, and then subjected to oxidation in the same dessicator filled with oxygen. After 24 h, the percentage of arachidonic acid recovered following autoxidation in each Petri-dish was determined by HPLC. […] The advantage of using a Petri-dish over a flask is that the thin films on each Petri-dish are spread over the same area, and each Petri-dish is exposed to oxygen to the same extent.
Using the Petri-dish assay method, the effects of the thia PUFAs and sulfides 106 and 108-111, along with compounds 18, 19 and 3-[(Z,Z,Z)-(octadeca-9,12,15-trienylthio)] propionic acid 112 which were available in the laboratory, on the autoxidation of arachidonic acid, were examined. In addition, the stability of these compounds in the presence of arachidonic acid was also investigated. Arachidonic acid and lauric acid as a standard were mixed with each sulfur compound at different ratios and the mixtures were subjected to thin film autoxidation. The mixtures were analysed by HPLC after 1,2,3,5 and 7 days.

12-LO = biological target: T1, 12-LO (Sus scrofa, UniProt P16469); experiment: Effect on 12-LO catalysed oxidation of arachidonic acid; type: biochemical, porcine
T1 construct: purchased Cayman Chemical Company
T1 sequence (P16469 1-663): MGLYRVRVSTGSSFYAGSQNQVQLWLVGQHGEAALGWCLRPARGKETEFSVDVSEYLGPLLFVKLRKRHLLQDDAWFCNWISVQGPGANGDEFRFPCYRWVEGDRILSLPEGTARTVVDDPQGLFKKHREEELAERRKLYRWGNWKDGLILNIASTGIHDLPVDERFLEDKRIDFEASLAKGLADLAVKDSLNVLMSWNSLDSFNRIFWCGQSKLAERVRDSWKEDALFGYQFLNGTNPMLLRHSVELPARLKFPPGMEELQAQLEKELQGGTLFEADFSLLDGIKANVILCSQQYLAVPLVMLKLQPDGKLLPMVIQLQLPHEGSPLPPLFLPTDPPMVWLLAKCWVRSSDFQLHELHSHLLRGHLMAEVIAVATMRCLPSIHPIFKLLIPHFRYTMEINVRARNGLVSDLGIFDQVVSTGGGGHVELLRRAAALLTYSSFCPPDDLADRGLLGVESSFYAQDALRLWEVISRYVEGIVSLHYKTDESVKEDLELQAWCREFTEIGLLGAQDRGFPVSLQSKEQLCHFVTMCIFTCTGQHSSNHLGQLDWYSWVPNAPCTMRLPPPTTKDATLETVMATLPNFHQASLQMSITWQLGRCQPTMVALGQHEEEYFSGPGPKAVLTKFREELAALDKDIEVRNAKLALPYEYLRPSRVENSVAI

15-LO = biological target: T2, 15-LO (Glycine max, UniProt P08170); experiment: Effect on 15-LO catalysed oxidation of arachidonic acid; type: biochemical, soybean; details: for Ki: mixed inhibition pattern
T2 construct: purchased Sigma Chemical Company
T2 sequence (P08170 1-839): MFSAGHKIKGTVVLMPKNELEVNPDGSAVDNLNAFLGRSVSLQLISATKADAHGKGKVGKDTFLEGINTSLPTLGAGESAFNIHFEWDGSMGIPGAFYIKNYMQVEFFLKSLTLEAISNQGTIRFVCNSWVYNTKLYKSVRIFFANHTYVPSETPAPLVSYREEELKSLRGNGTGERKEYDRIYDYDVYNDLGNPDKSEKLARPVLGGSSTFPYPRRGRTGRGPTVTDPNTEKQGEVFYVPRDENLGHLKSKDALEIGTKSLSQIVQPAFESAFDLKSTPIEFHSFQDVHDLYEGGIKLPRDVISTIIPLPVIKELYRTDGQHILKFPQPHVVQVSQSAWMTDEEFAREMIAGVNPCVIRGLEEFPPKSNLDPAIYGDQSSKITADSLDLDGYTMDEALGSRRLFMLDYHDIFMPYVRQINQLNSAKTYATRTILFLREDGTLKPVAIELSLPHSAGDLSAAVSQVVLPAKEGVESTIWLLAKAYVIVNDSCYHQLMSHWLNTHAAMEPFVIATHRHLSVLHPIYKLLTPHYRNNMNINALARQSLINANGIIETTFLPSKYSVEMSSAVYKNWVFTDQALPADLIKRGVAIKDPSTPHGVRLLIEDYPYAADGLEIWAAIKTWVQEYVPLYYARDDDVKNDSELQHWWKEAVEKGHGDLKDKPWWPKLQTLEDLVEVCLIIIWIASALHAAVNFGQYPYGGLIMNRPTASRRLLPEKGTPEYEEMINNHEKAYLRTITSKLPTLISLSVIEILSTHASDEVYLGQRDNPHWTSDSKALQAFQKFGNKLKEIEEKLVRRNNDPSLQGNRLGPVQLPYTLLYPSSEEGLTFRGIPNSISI

5-LO = experiment: Effect on 5-LO catalysed oxidation of arachidonic acid; type: biochemical
Paw oedema = details: in vivo
IFN-γ = IFN-γ production by human peripheral blood leukocytes; type: cell-based; details: Leukocyte, stimulus PHA, read-out: % Inhibition (compared to control) of IFN-γ
Protocol: (§1) The effects of the nitroalkanes (Lx1-Lx5) on lymphocyte activation and cytokine production were examined. The ability of the PUFA to suppress mitogen-induced proliferation in response to PHA and S. aureus, and to inhibit cytokine production (TNFα and IFNγ), was assessed.

[3] = system: Plasmodium falciparum isolates 3D7, FC27, K+; experiment: Radiometric (3H-hypoxanthine) assay on asexual blood stages of P. falciparum; type: cell-based
Protocol: Using the radiometric assay^(36), the effects of the Lx compounds were examined for antimalarial activity. The Plasmodium falciparum isolates used were 3D7, FC27, K^1 and K^+. These were maintained in human blood group O^+ erythrocytes essentially as described previously using RPM-1640 (HEPES modification) supplemented with 0.25% D-glucose, 0.2% Tess buffer (Sigma Chemical Co, Lt Louis, Mo.) and 10% heat inactivated (56° C., 20 min) human blood group AB serum. Cultures were maintained in tissue culture flasks (Corning, N.Y.) at 37° C. under an atmosphere of 1% 2, 5% CO2 in N2. P. falciparum cultures containing approximately 3.0:% parasitaemia were adjusted to 1×10^8 erythrocytes/ml. To 50 μl of the parasite-erythrocyte culture (5×10^6 erythrocytes) in wells of 96-well microdilution plates wvas added 50 μl of the designated concentration of fatty acid or equivalent amounts of solutions or media. The treated cultures were incubated at 37° C. for 4 h and then pulsed with 50 μl (2.5 μCi) of ^3H-hypoxanthine. After a further 18 h incubation the parasites-erythrocytes were harvested onto glass fibre filter papers using a cell harvester. The amount of radioactivity incorporated was measured in a β-counter. The results have been expressed as % inhibition of parasite growth i.e. the dpm in the fatty acid diluent−dpm in the fatty acid treated cultures/dpm in diluent×100.

TNF-α = TNF-α production by human peripheral blood leukocytes; type: cell-based; details: Leukocyte, stimulus S. aureus, read-out: % Inhibition (compared to control) of TNF-α
Protocol: as §1

human neutrophils = experiment: AA-enhanced chemiluminescence in human neutrophils; type: cell-based; details: neutrophils pretreated with compound
Protocol: Arachidonic acid (AA) is a natural agonist which stimulates oxygen radical production in neutrophils leading to tissue damage during inflammation. Studies were conducted to examine whether or not the Lx compounds could antagonise the effects of AA. Neutrophils were pretreated with Lx compounds and then examined for chemiluminescence response to AA addition. […] The effect of Lx compounds on AA-enhanced chemiluminescence in human neutrophils is shown graphically in FIG. 11.

[4] = ratio arachidonic acid:compound 1:1, 1 day
[5] = ratio arachidonic acid:compound 1:1, 2 days
[6] = ratio arachidonic acid:compound 1:1, 3 days
[7] = ratio arachidonic acid:compound 1:1, 5 days

CCCCCCCCCCCCCCSCCC(=O)O [Compound 108]
Conversion to the sulfoxide by tert-butyl hydroperoxide [1]: completely converted | Antioxidant effect on autoxidation of arachidonic acid (in words) [2]: effective antioxidants | Arachidonic acid (%) recovered following autoxidation in the presence of the compound [2, 4]: 98% | Compound (%) recovered following autoxidation with arachidonic acid [2, 4]: 99% | Arachidonic acid (%) recovered following autoxidation in the presence of the compound [2, 5]: 93% | Compound (%) recovered following autoxidation with arachidonic acid [2, 5]: 91% | Arachidonic acid (%) recovered following autoxidation in the presence of the compound [2, 6]: 79% | Compound (%) recovered following autoxidation with arachidonic acid [2, 6]: 86% | Arachidonic acid (%) recovered following autoxidation in the presence of the compound [2, 7]: 30% | Compound (%) recovered following autoxidation with arachidonic acid [2, 7]: 44% | Compound (%) recovered following autoxidation with arachidonic acid ([2]; ratio arachidonic acid:compound 1:1, 7 days): 37%

CCCCCCCCCCCCCCCCCC[N+](=O)[O-] [Lx1, 1-Nitrooctadecane]
Effect on 12-LO catalysed oxidation of AA (12-LO): Nil | Effect on 15-LO catalysed oxidation of AA (15-LO): Nil | Effect on 5-LO catalysed oxidation of AA (5-LO): Nil | Effect in paw oedema (Paw oedema): inflammatory

CC/C=C\C/C=C\C/C=C\CCCCCCCC[N+](=O)[O-] [Lx2, (z,z,z)-1-Nitro-9,12,15-octadecatriene]
inhibition at 20 µM (IFN-γ): 40.4% | Effect on 15-LO catalysed oxidation of AA (15-LO): Nil | Antimalarial activity (in words) [3]: most promising | inhibition at 20 µM (TNF-α): 43.7%

CCCCC/C=C\C/C=C\C/C=C\C/C=C\CCCC[N+](=O)[O-] [Lx4, (a11-z)-1-Nitro-5,8,11,14-eicosatetraene]
Effect on 12-LO catalysed oxidation of AA (12-LO): Nil | inhibition at 20 µM (IFN-γ): 79.8% | Effect on 15-LO catalysed oxidation of AA (15-LO): Nil | Effect on 5-LO catalysed oxidation of AA (5-LO): Nil | Antimalarial activity on P. falciparum 3D7 (FIG. 1, in words) ([3]; isolate 3D7): activity is lost | inhibition at 20 µM (TNF-α): 34%

CCCCCCCCCCCCCCCCCC(CCC(=O)O)[N+](=O)[O-] (stereo not drawn) [Lx6, 4-Nitrohenicosanoic acid]
Effect on 12-LO catalysed oxidation of AA (12-LO): Activatory | Effect on 12-LO catalysed oxidation of AA (12-LO; listed as 6a): Neither 8a nor 6a inhibits 12-LO | Effect on 15-LO catalysed oxidation of AA (15-LO): Activatory | Effect on 15-LO catalysed oxidation of AA (15-LO; listed as 6a): not 15LO | Effect on 5-LO catalysed oxidation of AA (5-LO): Inhibitory | Effect on 5-LO catalysed oxidation of AA (5-LO; listed as 4-nitrohenicosanoic acid): selective inhibitors | Effect on 5-LO catalysed oxidation of AA (5-LO; listed as 6a): inhibiting 5-LO | IC50 (5-LO; read-out: IC50, 5-LO catalysed oxidation of AA): 60 µM

CCCCCCCCCCCCCCCCCC(CCC(=O)O)(CCC(=O)O)[N+](=O)[O-] [Lx8, 3-Heptadecyl-3-nitropentane-1,5-dicarboxylic acid]
Effect on 12-LO catalysed oxidation of AA (12-LO): Activatory | Effect on 12-LO catalysed oxidation of AA (12-LO; listed as 8a): Neither 8a nor 6a inhibits 12-LO | Effect on 15-LO catalysed oxidation of AA (15-LO): Inhibitory | Effect on 15-LO catalysed oxidation of AA (15-LO; listed as 3-heptadecyl-3-nitropentane-1,5-dicarboxylic acid): selective inhibitors | Effect on 15-LO catalysed oxidation of AA (15-LO; listed as 8a): inhibitory effect | Ki (15-LO; read-out: Ki, 15-LO catalysed oxidation of arachidonic acid): 27.4 µM | Ki (15-LO; read-out: Kl (second inhibitor constant; printed Ki in Table 3), 15-LO catalysed oxidation of arachidonic acid): 55.2 µM | Effect on 5-LO catalysed oxidation of AA (5-LO): Nil

CCCCC/C=C\C/C=C\C/C=C\C/C=C\CCCC(CCC(=O)O)(CCC(=O)O)[N+](=O)[O-] [Lx9, 3-[(a11-Z)-Nonadeca-4,7,10,13-tetraenyl] 4-nitroheptane-1,7-dicarboxylic acid]
Effect on 12-LO catalysed oxidation of AA (12-LO): Inhibitory | Effect on 12-LO catalysed oxidation of AA (12-LO; listed as 3-(all-Z)-nonadeca4,7,10,13-tetraeny]-3-nitropertane-1,5-dicarboxylic acid): selective inhibitors | Effect on 12-LO catalysed oxidation of AA (12-LO; listed as 8b): significant inhibitory effect | Effect on 15-LO catalysed oxidation of AA (15-LO): Nil | Effect on 5-LO catalysed oxidation of AA (5-LO): Activatory | Antimalarial activity (in words) [3]: did not have appreciable antimalarial activity | Inhibition of AA-stimulated oxygen radical production (chemiluminescence) (human neutrophils): particularly evident
